Measured values: US20060247320A1, “Compounds for inhibiting KSP kinesin activity” (priority 2005, published 2006)
Read-outs that look alike come from different tables or passages of the source.

Target: T1, KSP motor domain (Homo sapiens, UniProt P52732)
T1 sequence (P52732 18-359 limits assumed): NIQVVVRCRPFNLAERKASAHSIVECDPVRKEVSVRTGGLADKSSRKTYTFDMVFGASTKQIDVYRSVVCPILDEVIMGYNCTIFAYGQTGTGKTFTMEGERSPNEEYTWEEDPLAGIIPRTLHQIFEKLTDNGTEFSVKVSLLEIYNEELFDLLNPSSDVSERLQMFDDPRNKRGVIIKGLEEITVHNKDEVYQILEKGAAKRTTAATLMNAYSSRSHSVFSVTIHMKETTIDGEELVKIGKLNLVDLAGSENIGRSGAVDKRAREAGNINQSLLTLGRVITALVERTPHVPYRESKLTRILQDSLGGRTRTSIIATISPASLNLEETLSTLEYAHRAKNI
Experiment: biochemical

[1] = KSP inhibitory activity, end-point assay, class symbols (Table 1), read-out: IC50
[2] = exact IC50 values, end-point assay (Table 2), read-out: IC50
[3] = KSP inhibitory activity, end-point assay, class symbols (Table 1)

Structure (SMILES)	IC50 [1] [nM]	other results
CC(C)(C)C1CCc2nc3c(cc2C1)C(N)=C(C#N)S3(=O)=O (centres unmarked) [Example 127, 3-Amino-6-tert-butyl-1,1-dioxo-5,6,7,8-tetrahydro-1H-1λ^6-thieno[2,3-b]quinoline-2-carbonitrile]	1000 to 10000	
CC(C)(C)[C@@H]1CCc2nc3sc(C(=O)N[C@H](CN)c4cccc(NC(=O)c5cnc6ccccc6n5)c4)cc3cc2C1 [Example 228]	< 100	
CC1Cc2nc3sc(C(N)=O)cc3cc2CC1C(C)(C)C (centres unmarked) [Example 204, 6-tert-Butyl-7-methyl-5,6,7,8-tetrahydro-thieno[2,3,-b]quinoline-2-carboxylic acid amide]	100 to 1000	
CC(C)(C)[C@@H]1CCc2nc3sc(C(=O)N[C@H](CN)c4cccc(NCc5cccnc5)c4)cc3cc2C1 [Example 282]	< 100	
N#Cc1sc2nc3c(cc2c1N)CN(Cc1ccccc1)CC3 [Example 56]	> 10000	
Cn1cc(C(=O)Nc2cccc([C@@H](CN)NC(=O)c3cc4cc5c(nc4s3)CC[C@@H](C(C)(C)C)C5)c2)cn1 [Example 240]	< 100	
N#Cc1sc2nc3c(cc2c1N)CN(CCC(F)(F)F)CC3 [Example 57]	> 10000	
CC(CO)NC(=O)c1cc2cc3c(nc2s1)CCC(C(C)(C)C)C3 (centres unmarked) [Example 83]	100 to 1000	
CC(C)C1CCc2nc3sc(C#N)c(N)c3cc2C1 (centres unmarked) [Example 1, 3-amino-6-isopropyl-5,6,7,8-tetrahydrothieno[2,3-b]quinoline-2-carbonitrile]	1000 to 10000	
CC(C)(C)C1CCc2nc3sc(S(C)(=O)=O)c(N)c3cc2C1 (centres unmarked) [Example 120, 6-tert-Butyl-2-methanesulfonyl-5,6,7,8-tetrahydrothieno[2,3-b]quinolin-3-ylamine]	100 to 1000	
CC(C)(C)C1CCc2nc3sc(C(=O)NCCN)cc3cc2C1 (centres unmarked) [Example 99]	< 100	IC50 [2]: 22 nM
CC(C)(C)C1CCc2nc3sc(C(=O)Nc4ccncc4)cc3cc2C1 (centres unmarked) [Example 226C]	100 to 1000	
COC(=O)[C@H]1CCCCN1C(=O)c1cc2cc3c(nc2s1)CCC(C(C)(C)C)C3 (some centres unmarked) [Example 90]	> 10000	
CC(=O)Nc1cc2cc3c(nc2s1)CCC(C(C)(C)C)C3 (centres unmarked) [Example 124, N-(6-tert-Butyl-5,6,7,8-tetrahydrothieno[2,3-b]quinolin-2-yl)acetamide]	1000 to 10000	
CC(C)(C)[C@@H]1CCc2nc3sc(C(=O)N[C@H](CN)c4cccc(NC(=O)c5cncc(N)n5)c4)cc3cc2C1 [Example 260]	< 100	
CC(C)(C)C1CCc2nc3sc(S(C)(=O)=O)cc3cc2C1 (centres unmarked) [Example 122, 6-tert-Butyl-2-methanesulfonyl-5,6,7,8-tetrahydrothieno[2,3-b]quinoline]	1000 to 10000	
CC(C)(C)C1CCc2nc3sc(C(=O)N[C@H](CN)c4ccc([N+](=O)[O-])cc4)cc3cc2C1 (some centres unmarked) [Example 215]	< 100	
CC(C)(C)[C@@H]1CCc2nc3sc(C(=O)N[C@H](CNCCO)c4cccc(NC(=O)c5ncco5)c4)cc3cc2C1 [Example 265, 6-tert-Butyl-5,6,7,8-tetrahydrothieno[2,3-b]quinoline-2-carboxylic acid (2-(2-hydroxy-ethylamino)-1-{3-[(oxazole-2-carbonyl)amino]phenyl}ethyl)amide]	< 100	
CC(C)(C)C1CCc2nc3sc(C(=O)Nc4ccc(N)cc4)cc3cc2C1 (centres unmarked) [Example 226F]	100 to 1000	
CC(C)(C)C1CCc2cc3c(N)c(C#N)sc3nc2CC1 (centres unmarked) [Example 41]	1000 to 10000	
CC(C)(C)[C@@H]1CCc2nc3sc(C(=O)N[C@H](CN)c4cccc(NCc5ccccc5)c4)cc3cc2C1 [Example 283]	< 100	
CCC(C1CCc2nc3sc(C#N)c(N)c3cc2C1)C(C)(C)C (centres unmarked) [Example 29]	> 10000	
CC(C)(C)C1CCc2nc3sc(NC=O)nc3cc2C1 (centres unmarked) [Example 134, N-(7-tert-Butyl-5,6,7,8-tetrahydrothiazolo[5,4-b]quinolin-2-yl)-formamide]		IC50 (nM) [3]: B/C
CC(C)(C)C1CCc2nc3sc(C(=O)N[C@H](CN)c4ccc(C#N)cc4)cc3cc2C1 (some centres unmarked) [Example 216]	< 100	
CC(C)(C)C1CCc2nc3sc(C(=O)Nc4ccc(N)nc4)cc3cc2C1 (centres unmarked) [Example 226J]	100 to 1000	
CC(C)CC1CCc2nc3sc(C#N)c(N)c3cc2C1 (centres unmarked) [Example 27]	1000 to 10000	
CC(C)C1Cc2cc3c(N)c(C#N)sc3nc2CC1C (centres unmarked) [Example 207, 3-Amino-6-isopropyl-7-methyl-5,6,7,8-tetrahydro-thieno[2,3-b]quinoline-2-carbonitrile]	> 10000	
CCC1Cc2nc3sc(C#N)c(N)c3cc2CC1C(C)(C)C (centres unmarked) [Example 205, 3-Amino-6-tert-butyl-7-ethyl-5,6,7,8-tetrahydrothieno[2,3-b]quinoline-2-carbonitrile]	1000 to 10000	

Structure (SMILES)	IC50 [1] [nM]	other results
CCC(C)(C)C1CCc2nc3sc(C#N)c(N)c3c(SC)c2C1 (centres unmarked) [Example 54]	> 10000	
CC(C)(C)[C@@H]1CCc2nc3sc(C(=O)N[C@H](CN)c4ccc(NC(=O)c5cscn5)cc4)cc3cc2C1 [Example 270]	< 100	
CCCCCC1CCc2nc3sc(C#N)c(N)c3cc2C1 (centres unmarked) [Example 19]	> 10000	
C[C@@H]1CNCCN1C(=O)Nc1cccc([C@@H](CN)NC(=O)c2cc3cc4c(nc3s2)CC[C@@H](C(C)(C)C)C4)c1 [Example 277]	< 100	IC50 [2]: 10 nM
CC(C)(C)C1CCc2nc3sc(C(=O)Nc4ccncc4N)cc3cc2C1 (centres unmarked) [Example 226E]	100 to 1000	
CC(CO)NC(=O)c1sc2nc3c(cc2c1N)CC(C(C)(C)C)CC3 (stereo in doubt) [Example 192, 3-Amino-6-(1,1-Dimethylethyl)-5,6,7,8-Tetrahydro-N-(2-Hydroxy-1(S)-Methylethyl)thieno[2,3-b]quinoline-2-Carboxamide]	1000 to 10000	
CC(C)(C)C1CCc2nc3sc(C(=O)Nc4ccc(O)cc4)cc3cc2C1 (centres unmarked) [Example 226A, 2-(1-Amino-4-Hydroxyphenyl) carboxamido-6-tert-butyl-5,6,7,8-tetrahydrothieno [2,3-b]quinoline]	100 to 1000	
N#Cc1sc2nc3c(cc2c1N)CC(c1ccccc1)CC3 (centres unmarked) [Example 3]	> 10000	
CC(C1CCc2nc3sc(C#N)c(N)c3cc2C1)C(C)(C)C (centres unmarked) [Example 23]	> 10000	
CC(C)(C)C1CCc2nc3sc(COC(N)=O)cc3cc2C1 (centres unmarked) [Example 147]		IC50 (IC50 (nM), KSP inhibitory activity, end-point assay, class symbols (Table 1)): 1000 to 10000 nM
CC(C)(C)C1CCc2nc3sc(-c4ncc(CO)o4)cc3cc2C1 (centres unmarked) [Example 185, [2-(6-tert-Butyl-5,6,7,8-tetrahydrothieno[2,3-b]quinolin-2-yl)oxazol-5-yl]methanol]	1000 to 10000	
CC(C)(C)C1CCc2nc3sc(C(=O)O)cc3cc2C1 (centres unmarked) [Example 73, 6-tert-Butyl-5,6,7,8-tetrahydrothieno[2,3-b]quinoline-2-carboxylic acid]	> 10000	
CC(C)(C)[C@@H]1CCc2nc3sc(C(=O)N[C@H](CN)c4cccc(NC(=O)c5ccn(-c6ccccc6)n5)c4)cc3cc2C1 [Example 241]	< 100	
Cn1cncc1C(=O)Nc1cccc([C@@H](CN)NC(=O)c2cc3cc4c(nc3s2)CC[C@@H](C(C)(C)C)C4)c1 [Example 251]	< 100	
CC(C)(C)C1CCc2nc3sc(C(=O)N4CCC[C@@H]4C(=O)O)cc3cc2C1 (some centres unmarked) [Example 88]	> 10000	
Cc1ncnc(C)c1C(=O)Nc1ccc([C@@H](CN)NC(=O)c2cc3cc4c(nc3s2)CC[C@@H](C(C)(C)C)C4)cc1 [Example 272]	< 100	
CC(C)(C)C1CCc2nc3sc(C(=O)N[C@H](CN)c4ccc(N)cc4)cc3cc2C1 (some centres unmarked) [Example 218]	< 100	
CC(C)(C)C1CCc2nc3sc(C(=O)NCCN4CCCC4)cc3cc2C1 (centres unmarked) [Example 199, 6-(1,1-Dimethylethyl)-5,6,7,8-tetrahydro-N-[2-(1-Pyrrolidinyl)ethyl]thieno[2,3-b]quinoline-2-Carboxamide]	1000 to 10000	
CNCc1cc2cc3c(nc2s1)CCC(C(C)(C)C)C3 (centres unmarked) [Example 151]	1000 to 10000	
C[C@@H](CO)NC(=O)c1cc2cc3c(nc2s1)CCC([Si](C)(C)C)C3 (stereo partly drawn) [Example 190, 5,6,7,8-Tetrahydro-N-(2-hydroxy-1(S)-methylethyl)-6-(Trimethylsilyl)thieno[2,3-b]quinoline-2-Carboxamide]		IC50 (nM) [3]: B/C
CCCC1(CCC)CCc2nc3sc(C#N)c(N)c3cc2C1 [Example 16]	> 10000	
CC(C)(C)[C@@H]1CCc2nc3sc(C(=O)N[C@H](CN)c4ccc(NC(=O)c5ccco5)cc4)cc3cc2C1 [Example 273, 6(R)-tert-Butyl-5,6,7,8-tetrahydro-thieno[2,3-b]quinoline-2-carboxylic acid (2-amino-1(S)-{4-[(furan-2-carbonyl)-amino]-phenyl}-ethyl)-amide]	< 100	IC50 [2]: 17 nM
CC(C)(C)C1CCc2nc3sc(CO)cc3cc2C1 (centres unmarked) [Example 144]	< 100	IC50 [2]: 60 nM
CC(C)[C@@H](CO)NC(=O)c1cc2cc3c(nc2s1)CCC(C(C)(C)C)C3 (stereo partly drawn) [Example 157, 6-tert-Butyl-5,6,7,8-tetrahydrothieno[2,3-b]quinoline-2-carboxylic acid [(1S)-1-hydroxymethyl-2-methyl-propyl]amide]	> 10000	
CC(C)(C)C1CCc2nc3sc(C(=O)NCCN4CCNCC4)cc3cc2C1 (centres unmarked) [Example 197, 6-(1,1-Dimethylethyl)-5,6,7,8-Tetrahydro-N-[2-(1-Piperazinyl)ethyl]thieno[2,3-b]quinoline-2-Carboxamide]	100 to 1000	
CC(C)(C)C1CCc2nc3sc(C#N)cc3cc2C1 (racemic) [Example 58, 6-tert-butyl-5,6,7,8-tetrahydrothieno[2,3-b]quinoline-2-carbonitrile]	100 to 1000	
CNc1nsnc1C(=O)Nc1cccc([C@@H](CN)NC(=O)c2cc3cc4c(nc3s2)CC[C@@H](C(C)(C)C)C4)c1 [Example 256]	< 100	
